# Reference: patent US20250263496A1, “Neutrophil-Activating Therapy for the Treatment of Cancer” (The Board of Trustees of the Leland Stanford Junior …, priority 2024, published 2025)
# How the values were obtained:
# [1] = system: B16 cells; assay: Mouse in vitro cytotoxicity (EuTDA), B16 cells co-cultured with neutrophils; type: cell-based; settings: neutrophils from treated tumors stimulated with neutrophil-activating therapy
# Procedure: B16 tumors were treated by intratumoral injection of TNF+anti-CD40+anti-gp75 and harvested 12 hours post-treatment. Tumors were dissected away from any surrounding fat, minced, and digested in 5 mg/ml collagenase IV (Worthington) plus 0.1 mg/ml DNase I (Sigma) with continuous mixing by magnetic stir bars for 20 minutes at 37° C. in RPMI-1640 (Gibco) with 2% FBS. Following digestion, tissue was mashed through a […] cell strainer (Falcon) and washed. For some studies, bone marrow was harvested by grinding bones from tumor-naive untreated mice in a mortar and pestle and mashing through a […] strainer (Falcon). Neutrophils were isolated from tumor and bone marrow samples with the MojoSort Mouse Ly6G Selection Kit (BioLegend), according to the manufacturer's instructions, and used in the cytotoxicity assay.
# Cytotoxicity assays were conducted using the EuTDA assay from the DELFIA TRF cytotoxicity kit (PerkinElmer) according to the manufacturer's instructions. Briefly, B16 cells were labeled for 10 minutes with BATDA, and 5×10^3 labeled cells were added per well to a 96 well V-bottom plate in RPMI-1640. Neutrophils were added at a ratio of 10:1 unless otherwise stated. All co-cultures were conducted in the presence of TNF (10 ng/ml), anti-CD40 (1 μg/ml), anti-gp75 (1 μg/ml), and 10% active mouse C57BL/6 complement serum (Innovative Research), except where indicated otherwise. Mouse C57BL/6 complement serum was heat-inactivated for 40 minutes at 57° C. where inactivation is specified. In some experiments, mouse IgG2a isotype control (1 μg/ml, isotype control for anti-gp75, clone C1.18.4, Bio X Cell), anti-mouse CD16/CD32 (10 μg/ml, clone 2.4G2, Bio X Cell), recombinant mouse C5a (50 nM, R&D Systems), anti-C5a (25 μg/ml, clone 295108, R&D Systems), rat IgG2a isotype control (25 μg/ml, isotype control for anti-C5a, clone 2A3, Bio X Cell), anti-C5AR1 (5 μg/ml, clone 20/70, BioLegend), rat IgG2b isotype control (5 μg/ml, isotype control for anti-C5AR1, clone LTF-2, Bio X Cell), SC57461A (10 μM, Cayman Chemical), CP-105696 (1 μM, Sigma), topiroxostat (10 μM, MedChem Express), or DMSO (vehicle for SC57461A, CP-105696, and topiroxostat) were added to the wells with the B16 and neutrophils. After 4 hours of co-culture at 37° C., supernatant was taken from the wells, Europium solution was added, and TDA released from lysed B16 cells was detected by […] on a Victor X4 fluorescence microplate reader (PerkinElmer). Percent maximal lysis was determined by calculating the specific release of TDA using the formula: (experimental release−spontaneous release)/(maximum release −spontaneous release), where spontaneous release was determined by wells containing no neutrophils and maximum release was determined by wells with lysis buffer added.
# For trogocytosis studies investigating transfer of tumor-binding antibody, anti-gp75 labeled with AF647 (clone TA99, Novus Biologicals) was used in place of unlabeled anti-gp75. For studies investigating transfer of B16 cell membrane, DiD′ Solid (ThermoFisher Scientific) was reconstituted in DMSO at 10 mg/ml and diluted to a working solution of 5 μg/ml in serum-free DMEM. B16 cells were labeled in this solution for 20 minutes at 37° C. at 1×10^6 cells/ml. Labeled B16 was washed 3 times in warm media before being added to the co-culture wells with the neutrophils. Following co-culture, flow cytometry was used to identify DiD signal in neutrophils.
# [2] = system: B16 tumors; assay: Oxidative damage in B16 tumors (DNA/RNA oxidation, oxidized glutathione); type: in vivo, mouse; settings: agent given prior to neutrophil-activating therapy
# Procedure: Tumors were dissected away from surrounding fat, fixed in 2% paraformaldehyde for 2 hours at 4° C., equilibrated in a 30% sucrose solution at 4° C., and embedded and frozen in O.C.T. Compound (Tissue-Tek). Slides were cut to […] and blocked with 1% BSA and 10% serum matched to the secondary antibody species. […] All parameters that were quantified were acquired with identical microscope settings and adjusted identically in Photoshop, and all adjustments were applied equally across the entire tumor. Quantification was performed in ImageJ, using the wand tool on the overlaid multichannel image to draw a border around the tumor and then measuring the percent area within that border with signal for the channel of the marker quantified.
# Determination of oxidized glutathione content. […] The percentage of oxidized glutathione was calculated from the reduced glutathione and total glutathione values determined by the kit.
smiles,measurement,setting,value
N#Cc1cc(-c2n[nH]c(-c3ccncc3)n2)ccn1 [topiroxostat],effect of agent on ex vivo killing of tumor cells by neutrophils,[1],inhibited ex vivo tumor cell killing
same,effect of agent on oxidation in tumors,[2],prevented oxidation in tumors
